# Experimental data published in patent publication US20240269489A1, “TREATMENT OF THE CENTRAL NERVOUS SYSTEM” (ACT Therapeutics Ltd, priority 2021, published 2024).
# Test system: subcutaneous prostate cancer model (PC3)
# Assay: Tumour specific uptake of Evans Blue after ACT, variable Enhancement MI
# Assay type: in vivo, mice
# Details: cluster composition 2 mL/kg i.v.; Enhancement 0.5 MHz, MI 0, 0.1, 0.2, 0.3, 0.4; tumours excised 30 min after treatment
# Protocol: To investigate the effect of MI variance of the US Enhancement field, tumour specific uptake of Evans Blue (EB, fluorescent dye) has been investigated in a subcutaneous prostate cancer model (PC3) in mice. Five groups with Enhancement insonation MIs of 0, 0.1, 0.2, 0.3 and 0.4 were investigated (N=3 animals per group). […] 30 min after treatment, the tumors were excised and the amount of EB was measured by spectrophotometry at 620 nm.
smiles,measurement,value
Cc1cc(-c2ccc(/N=N/c3ccc4c(S(=O)(=O)O)cc(S(=O)(=O)O)c(N)c4c3O)c(C)c2)ccc1/N=N/c1ccc2c(S(=O)(=O)O)cc(S(=O)(=O)O)c(N)c2c1O [Evans Blue],tissue uptake of Evans Blue as a function of Enhancement MI,"increases from no US (MI=0) to MI=0.1 and further with MI=0.2, but then drops again with MI=0.3"
